Earlier results on two molecules are cited in patent US20180187029A1, “COMPOSITION FOR FORMING HIGH RELEASE AND LOW FRICTION FUNCTIONAL COATINGS” (WHITFORD CORPORATION, priority 2015, published 2018).

The structures appear in SMILES notation.

The conditions of the series: for Density / Vapor pressure / Viscosity: 20° C.; for Surface tension: 23° C.

On to `COCCC(=O)N(C)C` [3-methoxy-N,N-dimethylpropanamide], for which the Density was 0.99 g/Cm3, the Vapor pressure is listed as 0.016 kPa, the Viscosity is reported as 2.3 mPa · s and the Surface tension was 34.2 mN/m.

Take `CN1CCCC1=O` [N-methyl-2-pyrrolidone]: the Density is 1.03 g/Cm3, the Vapor pressure is 0.04 kPa, the Viscosity was 1.8 mPa · s and the Surface tension was 38.6 mN/m.
